Assay results as given in ChEMBL document CHEMBL5653631, “A Potent and Selective ULK1 Inhibitor Suppresses Autophagy and Sensitizes Cancer Cells to Nutrient Stress” (iScience, 2018).
Values belong to the compound of their own block, whether it stands above or below them.

Assays:
[1] = biological target: Cyclin-dependent kinase 9 (Homo sapiens) (UniProt P50750); assay: Inhibition of human recombinant CDK9 at 500 nM related to control ULK1
[2] = biological target: Ephrin type-A receptor 7 (Homo sapiens) (UniProt Q15375); assay: Inhibition of human recombinant EphA7 at 15 nM related to control ULK1
Chain of Ephrin type-A receptor 7 (Homo sapiens) (Q15375 28-998 limits assumed): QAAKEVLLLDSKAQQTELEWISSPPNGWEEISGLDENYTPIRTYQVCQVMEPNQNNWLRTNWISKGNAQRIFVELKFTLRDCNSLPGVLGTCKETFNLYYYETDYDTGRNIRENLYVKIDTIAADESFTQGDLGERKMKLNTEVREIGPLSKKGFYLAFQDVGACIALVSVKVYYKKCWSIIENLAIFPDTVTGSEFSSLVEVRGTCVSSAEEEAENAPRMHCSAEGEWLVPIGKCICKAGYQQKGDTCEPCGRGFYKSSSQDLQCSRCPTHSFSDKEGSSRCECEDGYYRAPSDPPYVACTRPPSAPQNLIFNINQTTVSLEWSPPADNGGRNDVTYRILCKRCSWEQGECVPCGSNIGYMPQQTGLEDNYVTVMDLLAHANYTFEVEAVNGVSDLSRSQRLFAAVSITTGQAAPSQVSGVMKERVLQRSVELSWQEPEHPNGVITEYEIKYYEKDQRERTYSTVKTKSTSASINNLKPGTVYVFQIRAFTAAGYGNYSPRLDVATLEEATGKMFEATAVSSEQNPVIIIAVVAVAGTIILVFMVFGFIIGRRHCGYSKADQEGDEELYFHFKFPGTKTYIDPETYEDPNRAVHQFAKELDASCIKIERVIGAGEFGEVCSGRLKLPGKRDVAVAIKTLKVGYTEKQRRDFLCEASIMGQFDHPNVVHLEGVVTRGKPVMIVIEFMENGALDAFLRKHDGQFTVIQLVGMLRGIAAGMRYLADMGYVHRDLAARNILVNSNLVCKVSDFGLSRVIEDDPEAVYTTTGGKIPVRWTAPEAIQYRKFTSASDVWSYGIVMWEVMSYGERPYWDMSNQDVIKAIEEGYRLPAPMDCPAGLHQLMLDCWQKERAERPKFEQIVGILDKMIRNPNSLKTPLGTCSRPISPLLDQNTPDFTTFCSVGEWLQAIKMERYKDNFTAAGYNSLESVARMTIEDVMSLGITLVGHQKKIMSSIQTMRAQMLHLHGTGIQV

[3] = biological target: Protein kinase C delta type (Homo sapiens) (UniProt Q05655); assay: Inhibition of human recombinant PKCd at 15 nM related to control ULK1
Chain of Protein kinase C delta type (Homo sapiens) (Q05655 whole entry, looked up): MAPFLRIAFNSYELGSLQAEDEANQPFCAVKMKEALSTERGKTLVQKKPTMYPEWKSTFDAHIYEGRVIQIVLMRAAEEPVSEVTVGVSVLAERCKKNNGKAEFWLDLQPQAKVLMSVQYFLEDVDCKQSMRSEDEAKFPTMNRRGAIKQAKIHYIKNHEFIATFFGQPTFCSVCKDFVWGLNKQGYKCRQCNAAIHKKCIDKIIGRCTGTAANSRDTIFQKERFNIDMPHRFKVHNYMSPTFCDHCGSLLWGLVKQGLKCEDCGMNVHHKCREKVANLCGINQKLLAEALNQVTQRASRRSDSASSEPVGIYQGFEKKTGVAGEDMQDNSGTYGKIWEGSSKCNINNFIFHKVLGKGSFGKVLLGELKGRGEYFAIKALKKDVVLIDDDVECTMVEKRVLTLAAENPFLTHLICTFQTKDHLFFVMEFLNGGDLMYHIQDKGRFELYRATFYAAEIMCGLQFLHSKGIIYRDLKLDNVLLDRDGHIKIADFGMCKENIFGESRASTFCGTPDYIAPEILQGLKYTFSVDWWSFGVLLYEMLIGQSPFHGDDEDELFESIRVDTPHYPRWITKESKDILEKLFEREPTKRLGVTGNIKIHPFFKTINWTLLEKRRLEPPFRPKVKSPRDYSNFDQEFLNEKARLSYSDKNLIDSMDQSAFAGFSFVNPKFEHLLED

[4] = biological target: T1, Mitogen-activated protein kinase kinase kinase 7 (Homo sapiens) (UniProt O43318); assay: Inhibition of human recombinant TAK1 at 15 nM related to control ULK1
T1 sequence (whole entry): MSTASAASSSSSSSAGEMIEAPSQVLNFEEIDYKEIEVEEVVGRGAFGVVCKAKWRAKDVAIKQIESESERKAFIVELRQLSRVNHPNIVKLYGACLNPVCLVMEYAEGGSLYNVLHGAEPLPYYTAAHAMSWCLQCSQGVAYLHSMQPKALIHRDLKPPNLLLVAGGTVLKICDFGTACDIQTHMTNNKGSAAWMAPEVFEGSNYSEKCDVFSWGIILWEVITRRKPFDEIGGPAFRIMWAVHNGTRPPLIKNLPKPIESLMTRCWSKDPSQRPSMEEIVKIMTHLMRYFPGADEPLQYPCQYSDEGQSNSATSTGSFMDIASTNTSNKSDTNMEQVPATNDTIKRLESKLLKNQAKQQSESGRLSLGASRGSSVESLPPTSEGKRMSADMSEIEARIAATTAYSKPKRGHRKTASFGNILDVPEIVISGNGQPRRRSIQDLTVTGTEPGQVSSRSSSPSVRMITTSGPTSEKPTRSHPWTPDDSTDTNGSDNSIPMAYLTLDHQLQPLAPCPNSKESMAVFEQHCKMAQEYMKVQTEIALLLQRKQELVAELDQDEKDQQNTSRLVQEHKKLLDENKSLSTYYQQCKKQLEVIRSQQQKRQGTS

[5] = biological target: Protein kinase C iota type (Homo sapiens) (UniProt P41743); assay: Inhibition of human recombinant PKCi at 15 nM in presence of ATP by radiometric assay relative to control
Chain of Protein kinase C iota type (Homo sapiens) (P41743 whole entry, looked up): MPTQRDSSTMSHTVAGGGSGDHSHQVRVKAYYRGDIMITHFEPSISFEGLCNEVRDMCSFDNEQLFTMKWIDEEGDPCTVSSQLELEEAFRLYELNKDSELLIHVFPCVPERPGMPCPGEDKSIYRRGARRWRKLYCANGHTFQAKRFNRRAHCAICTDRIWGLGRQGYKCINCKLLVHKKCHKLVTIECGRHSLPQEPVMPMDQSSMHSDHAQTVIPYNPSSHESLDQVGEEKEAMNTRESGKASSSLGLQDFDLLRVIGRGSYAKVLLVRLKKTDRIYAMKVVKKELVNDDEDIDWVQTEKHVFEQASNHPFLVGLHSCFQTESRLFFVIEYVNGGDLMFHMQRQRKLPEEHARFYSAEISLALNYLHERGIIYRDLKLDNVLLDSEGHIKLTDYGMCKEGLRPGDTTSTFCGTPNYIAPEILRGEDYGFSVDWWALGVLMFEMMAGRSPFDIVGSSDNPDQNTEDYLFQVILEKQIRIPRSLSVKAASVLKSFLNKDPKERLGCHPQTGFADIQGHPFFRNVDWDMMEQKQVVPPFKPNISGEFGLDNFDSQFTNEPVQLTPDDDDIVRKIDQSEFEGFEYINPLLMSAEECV

[6] = biological target: Fibroblast growth factor receptor 1 (Homo sapiens) (UniProt P11362); assay: Inhibition of human recombinant FGFR1 at 40 nM related to control ULK1
Chain of Fibroblast growth factor receptor 1 (Homo sapiens) (P11362 22-822 limits assumed): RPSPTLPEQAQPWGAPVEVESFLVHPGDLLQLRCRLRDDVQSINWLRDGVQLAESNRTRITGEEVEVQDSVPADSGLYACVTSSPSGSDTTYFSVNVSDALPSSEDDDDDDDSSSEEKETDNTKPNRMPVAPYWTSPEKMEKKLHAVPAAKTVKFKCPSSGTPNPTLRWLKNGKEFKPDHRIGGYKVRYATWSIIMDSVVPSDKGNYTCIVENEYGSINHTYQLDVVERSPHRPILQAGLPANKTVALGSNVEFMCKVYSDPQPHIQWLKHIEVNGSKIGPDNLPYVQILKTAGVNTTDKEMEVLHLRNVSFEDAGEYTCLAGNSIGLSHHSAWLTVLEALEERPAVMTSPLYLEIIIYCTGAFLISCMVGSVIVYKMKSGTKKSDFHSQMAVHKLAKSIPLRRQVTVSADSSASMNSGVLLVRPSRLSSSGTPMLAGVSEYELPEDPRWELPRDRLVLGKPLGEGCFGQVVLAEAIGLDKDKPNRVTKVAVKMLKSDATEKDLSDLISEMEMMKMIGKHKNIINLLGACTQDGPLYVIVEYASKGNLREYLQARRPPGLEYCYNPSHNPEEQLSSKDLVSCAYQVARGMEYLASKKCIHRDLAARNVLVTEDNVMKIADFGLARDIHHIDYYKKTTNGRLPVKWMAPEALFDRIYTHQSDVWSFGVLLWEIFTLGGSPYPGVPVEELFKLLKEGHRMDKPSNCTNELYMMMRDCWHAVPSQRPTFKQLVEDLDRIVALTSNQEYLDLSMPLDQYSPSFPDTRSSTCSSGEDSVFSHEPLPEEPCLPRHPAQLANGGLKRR

[7] = biological target: T2, Serine/threonine-protein kinase Nek1 (Homo sapiens) (UniProt Q96PY6); assay: Inhibition of human recombinant NEK1 at 40 nM related to control ULK1
T2 sequence (whole entry): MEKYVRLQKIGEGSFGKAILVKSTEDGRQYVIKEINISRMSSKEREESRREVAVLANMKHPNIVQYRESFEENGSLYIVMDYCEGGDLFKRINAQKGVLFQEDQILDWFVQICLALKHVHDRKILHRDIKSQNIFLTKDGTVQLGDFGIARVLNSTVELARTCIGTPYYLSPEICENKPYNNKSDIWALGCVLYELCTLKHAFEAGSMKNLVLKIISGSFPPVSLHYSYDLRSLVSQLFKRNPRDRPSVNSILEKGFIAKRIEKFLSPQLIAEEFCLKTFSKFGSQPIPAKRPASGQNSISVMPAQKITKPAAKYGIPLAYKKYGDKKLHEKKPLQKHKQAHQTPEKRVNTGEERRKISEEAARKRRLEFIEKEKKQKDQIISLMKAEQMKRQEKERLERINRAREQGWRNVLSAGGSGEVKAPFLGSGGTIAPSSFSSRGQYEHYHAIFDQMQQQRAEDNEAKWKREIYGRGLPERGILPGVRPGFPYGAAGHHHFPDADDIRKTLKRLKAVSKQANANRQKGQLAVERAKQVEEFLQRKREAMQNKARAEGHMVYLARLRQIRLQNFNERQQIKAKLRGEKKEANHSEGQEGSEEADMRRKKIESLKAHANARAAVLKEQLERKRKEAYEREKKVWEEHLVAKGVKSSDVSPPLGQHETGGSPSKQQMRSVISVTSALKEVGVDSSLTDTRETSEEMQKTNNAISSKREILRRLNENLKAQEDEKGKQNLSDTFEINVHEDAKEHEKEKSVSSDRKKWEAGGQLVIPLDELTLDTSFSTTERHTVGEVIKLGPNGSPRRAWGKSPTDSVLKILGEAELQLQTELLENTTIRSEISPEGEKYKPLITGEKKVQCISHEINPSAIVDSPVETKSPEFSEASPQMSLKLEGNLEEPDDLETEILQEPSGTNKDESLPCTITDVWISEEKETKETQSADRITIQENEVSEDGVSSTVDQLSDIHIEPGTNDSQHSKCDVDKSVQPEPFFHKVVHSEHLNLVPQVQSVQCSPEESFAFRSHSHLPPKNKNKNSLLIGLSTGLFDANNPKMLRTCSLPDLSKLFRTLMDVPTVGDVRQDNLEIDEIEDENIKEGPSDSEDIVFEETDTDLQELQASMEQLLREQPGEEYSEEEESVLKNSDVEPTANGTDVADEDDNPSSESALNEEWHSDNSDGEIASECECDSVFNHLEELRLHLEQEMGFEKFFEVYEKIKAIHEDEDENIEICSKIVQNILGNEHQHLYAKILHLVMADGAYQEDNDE

Chain of Cyclin-dependent kinase 9 (Homo sapiens) (P50750 whole entry): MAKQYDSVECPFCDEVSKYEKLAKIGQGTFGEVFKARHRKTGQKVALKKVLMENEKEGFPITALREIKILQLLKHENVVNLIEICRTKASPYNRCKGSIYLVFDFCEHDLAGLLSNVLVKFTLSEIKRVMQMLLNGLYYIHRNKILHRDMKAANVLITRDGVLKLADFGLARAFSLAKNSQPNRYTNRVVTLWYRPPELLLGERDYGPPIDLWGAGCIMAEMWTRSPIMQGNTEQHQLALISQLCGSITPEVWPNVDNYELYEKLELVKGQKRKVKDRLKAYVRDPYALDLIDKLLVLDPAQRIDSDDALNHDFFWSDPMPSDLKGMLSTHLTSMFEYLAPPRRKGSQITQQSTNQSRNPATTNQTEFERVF

fold change (FC) [1]: 0.04
SMILES: CNC(=O)c1ccccc1Oc1nc(Nc2cc(OC)c(OC)c(OC)c2)ncc1Br

fold change (FC) [2]: 0 | fold change (FC) [3]: 0 | fold change (FC) [4]: 0.01 | inhibition [5]: 4%
SMILES: CC(C)[C@H](NC(=O)c1cc(-c2cnn3cc(-c4ccc(OCCN5CCCCC5)cc4)cnc23)cs1)C(F)(F)F

fold change (FC) [6]: 0 | fold change (FC) [7]: 0
SMILES: O=C(N[C@@H](C1CC1)C(F)(F)F)c1cc(-c2cnn3cc(-c4ccc(F)cc4)cnc23)cs1
